Key:
[1] = target: T1, KRAS-G12C mutant (Homo sapiens, UniProt P01116, G12C); experiment: TR-FRET assay of SOS1-assisted KRAS GDP/GTP exchange; type: biochemical
Method: GDP form of 6*His tagged KRAS-G12C was diluted to 40 nM and incubated with 8 nM LanthaScreen™ Elite Terbium-anti-HIS Antibody (Thermo, catalog number PV5863) in reaction buffer containing 20 mM Tris, pH 7.5, 100 mM NaCl, 1 mM DTT, 0.1% Tween20, 0.05% BSA, 2% DMSO, 1 mM MgCl2. After 1 hour-incubation at 4° C., proteins were placed in 384 well plate (PerkinElmer, PROXIPLATE-384 PLUS). Then compounds with different concentrations were added to the proteins. BODIPY labeled GTP (Thermo, catalog number G12411) and SOS-1 (or reaction buffer as control) were then added to reactions at 200 nM and 1 μM to trigger the exchange of GDP to BODIPY-GTP. TR-FRET emission signals were determined at 520 nm and 620 nm on a Envision® Multilabel Plate Reader (PerkinElmer) using a 337 nm laser as light source. All data were analyzed and plotted using Graph Pad Prism software (version 8.0.1). Raw TR-FRET data were converted to percentage of inhibition (relative to DMSO) using the following equations: […]
b) For a given test compound concentration X:
Signal (X)=Emission ratio (SOS-1 & GTP)—Emission ratio (buffer & GTP)
c) Percentage of inhibition at concentration X=[1−Signal(X)/Signal (DMSO)]*100%
The […] values were determined by nonlinear regression of plots of [inhibitor] vs. percentage of inhibition with variable slope. Table 4 summarizes inhibition of SOS1-assisted GDP/GTP exchanging activity of KRAS-G12C mutant with exemplary compounds of the present disclosure.

[2] = test system: phospho-ERK1/2 (Thr202/Tyr204) in MIA PaCa-2 cell line; experiment: pERK and ERK Western blot analysis, MIA PaCa-2; type: cell-based; conditions: Homo sapiens; MIA PaCa-2 cell line, 4 hours after incubation; read-out: 2D pERK IC50
Method: MIA PaCa-2 (ATCC), NCI-H358 (ATCC), NCI-H23 (ATCC), SW837 and A549 (ATCC) cells were plated in 24-well plates at 2×10^5cells/well in RPMI growth medium containing 10% FBS and 1× Penicillin Streptomycin. They were then incubated at 37° C. overnight. The following day, the test compound was administered to the cells by using 1000× compound stock solution prepared in DMSO at various concentrations. After administration of the compound, the cells were then incubated at 37° C. for 4 hours. Upon completion, the cells were washed with PBS and protein was collected in Laemmli sample buffer (1×; VWR International). Proteins in cell lysate were separated by SDS-PAGE and transferred to Odyssey nitrocellulose membranes (Licor) with iblot® dry blotting transfer system (ThermoFisher). Nonspecific binding was blocked by incubating membranes with Intercept Blocking Buffer (Licor) for 1 hour at room temperature with gentle shaking. The membranes were then incubated overnight at 4° C. with primary antibodies rabbit anti-phospho p44/42 MAPK (Erk1/2) (1:2,000, Cell Signaling, 4370) and mouse anti-p44/42 MAPK (Erk1/2) (1:1,000, Cell Signaling, 4696) diluted in Intercept Blocking Buffer containing 0.1% Tween 20. After washing 3 times with TBS-T, the membranes were incubated with IRDye® 800CW goat anti-rabbit IgG (1:20,000, Licor) or IRDye® 680CW goat anti-mouse IgG (1:20,000, Licor) for 1 hour. After TBS-T washes, membranes were rinsed in TBS and scanned on Odyssey® CLx Imaging System (Licor). The bands were quantified using Image Studio™ Software (Licor).

[3] = target: T1, KRAS-G12C mutant; experiment: Gel shift assay (SDS-PAGE) for covalent modification of KRAS G12C; type: binding; conditions: 0.5 μM compound, 1 μM GDP-bound KRAS G12C, 25° C., 5 minutes, shift indicative of covalent cysteine conjugation
Method: 0.5 μM compounds were incubated with 1 μM GDP-bound untagged KRAS (G12C or wild type) proteins at 25° C. for 5 minutes in 40 μl reaction buffer (50 mM Tris, pH 7.5, 100 mM NaCl, 1 mM MgCl2, 1 mM DTT). The reactions were quenched with 10 μI SDS-PAGE sample loading buffer (250 mM Tris-HCl, pH 6.8, 10% SDS, 0.5% bromophenol blue, 50% glycerol and 50 mM DTT) and then analyzed via SDS-PAGE using 4%-20% gradient polyacrylamide gel followed by Coomassie blue stain.
FIG. 1 illustrates mobility change of KRAS-G12C mutant or wild type proteins on SDS-PAGE after 5 minutes of coincubation at 25° C. with exemplary compounds of the present disclosure, indicative of covalent cysteine conjugation.
Table 3 summarizes molecular weight shift of KRAS-G12C mutant on SDS-PAGE after 5 mins of coincubation at 25° C. with exemplary compounds of the present disclosure, indicative of covalent cysteine conjugation.

Row | SMILES | IC50 [1] [nM] | IC50 [2] [nM] | KRAS-G12C molecular weight shift [3]
1 | C=CC(=O)N1CCN(c2nc(OC[C@@H]3CCCN3C)nc3c2CO[C@@H](c2cccc4cccc(Cl)c24)C3)C[C@@H]1CC#N [Compound 6, 2-((S)-1-acryloyl-4-((R)-7-(8-chloronaphthalen-1-yl)-2-(((S)-1-methylpyrrolidin-2-yl)methoxy)-7,8-dihydro-5H-pyrano[4,3-d]pyrimidin-4-yl)piperazin-2-yl)acetonitrile] | 7130 | > 100 | 
2 | C=C(F)C(=O)N1CCN(c2nc(OC[C@@H]3CCCN3C)nc3c2CO[C@@H](c2cccc4cccc(Cl)c24)C3)C[C@@H]1CC#N [Compound 19, 2-((S)-4-((R)-7-(8-chloronaphthalen-1-yl)-2-(((S)-1-methylpyrrolidin-2-yl)methoxy)-7,8-dihydro-5H-pyrano[4,3-d]pyrimidin-4-yl)-1-(2-fluoroacryloyl)piperazin-2-yl)acetonitrile] | 80800 | > 100 | No
3 | C=C(F)C(=O)N1CCN(c2nc(OC[C@@H]3CCCN3C)nc3c2COC(c2cccc4ccccc24)C3)C[C@@H]1CC#N (stereo partly drawn) [Compound 1, 2-((2S)-1-(2-fluoroacryloyl)-4-(2-(((S)-1-methylpyrrolidin-2-yl)methoxy)-7-(naphthalen-1-yl)-7,8-dihydro-5H-pyrano[4,3-d]pyrimidin-4-yl)piperazin-2-yl)acetonitrile] | 698 | > 100 | 
4 | C=C(F)C(=O)N1CCN(c2nc(OCC34CCCN3CCC4)nc3c2COC(c2cccc4c2CCCC4)C3)C[C@@H]1CC#N (stereo partly drawn) [Compound 67, 2-((2S)-1-(2-fluoroacryloyl)-4-(2-((tetrahydro-1H-pyrrolizin-7a(5H)-yl)methoxy)-7-(5,6,7,8-tetrahydronaphthalen-1-yl)-7,8-dihydro-5H-pyrano[4,3-d]pyrimidin-4-yl)piperazin-2-yl)acetonitrile] | 36 | 10 to 100 | Yes
5 | C=C(F)C(=O)N1CCN(c2nc(OCC3(CN(C)C)CC3)nc3c2COC(c2cccc4cccc(Cl)c24)C3)C[C@@H]1CC#N (stereo partly drawn) [Compound 70, 2-((2S)-4-(7-(8-chloronaphthalen-1-yl)-2-((1-((dimethylamino)methyl)cyclopropyl)methoxy)-7,8-dihydro-5H-pyrano[4,3-d]pyrimidin-4-yl)-1-(2-fluoroacryloyl)piperazin-2-yl)acetonitrile] | 303 | 10 to 100 | Yes
6 | C=C(F)C(=O)N1CCN(c2nc(OCC34CCCN3CCC4)nc3c2CO[C@@H](c2cccc4cccc(Cl)c24)C3)C[C@@H]1CC#N (single isomer, unassigned) [Compound 54] | 2350 | > 100 | No
7 | C=CC(=O)N1CCN(c2nc(OC[C@@H]3CCCN3C)nc3c2CO[C@@H](c2cccc4ccccc24)C3)C[C@@H]1CC#N [Compound 5, 2-((S)-1-acryloyl-4-((R)-2-(((S)-1-methylpyrrolidin-2-yl)methoxy)-7-(naphthalen-1-yl)-7,8-dihydro-5H-pyrano[4,3-d]pyrimidin-4-yl)piperazin-2-yl)acetonitrile] | 2150 | > 100 | 
8 | C=C(F)C(=O)N1CCN(c2nc(OCC34CCCN3CCC4)nc3c2[C@@H](C)O[C@@H](c2cccc4cccc(C)c24)C3)C[C@@H]1CC#N [Compound 65, 2-((S)-1-(2-fluoroacryloyl)-4-((5R,7R)-5-methyl-7-(8-methylnaphthalen-1-yl)-2-((tetrahydro-1H-pyrrolizin-7a(5H)-yl)methoxy)-7,8-dihydro-5H-pyrano[4,3-d]pyrimidin-4-yl)piperazin-2-yl)acetonitrile] | 11600 | > 100 | No
9 | C=C(F)C(=O)N1CCN(c2nc(OCC34CCCN3CCC4)nc3c2CO[C@@H](c2cccc4cccc(C)c24)C3)C[C@@H]1CC#N (single isomer, unassigned) [Compound 57] | 4860 | > 100 | No
10 | C=CC(=O)N1CCN(c2nc(OC[C@@H]3CCCN3C)nc3c2COC(c2cccc4cccc(Cl)c24)C3)C[C@@H]1CC#N (stereo partly drawn) [Compound 3, 2-((2S)-1-acryloyl-4-(7-(8-chloronaphthalen-1-yl)-2-(((S)-1-methylpyrrolidin-2-yl)methoxy)-7,8-dihydro-5H-pyrano[4,3-d]pyrimidin-4-yl)piperazin-2-yl)acetonitrile] | 29 | 1 to 10 | 
11 | C=C(F)C(=O)N1CCN(c2nc(OCC34CCCN3CCC4)nc3c2CO[C@@H](c2cccc4c2CCCC4)C3)C[C@@H]1CC#N [Compound 68, 2-((S)-1-(2-fluoroacryloyl)-4-((R)-2-((tetrahydro-1H-pyrrolizin-7a(5H)-yl)methoxy)-7-(5,6,7,8-tetrahydronaphthalen-1-yl)-7,8-dihydro-5H-pyrano[4,3-d]pyrimidin-4-yl)piperazin-2-yl)acetonitrile] | 2540 | > 100 | No
12 | C=C(F)C(=O)N1CCN(c2nc(OCC34CCCN3CCC4)nc3c2[C@@H](C)O[C@@H](c2cccc4c2CCCC4)C3)C[C@@H]1CC#N [Compound 60, 2-((S)-1-(2-fluoroacryloyl)-4-((5R,7R)-5-methyl-2-((tetrahydro-1H-pyrrolizin-7a(5H)-yl)methoxy)-7-(5,6,7,8-tetrahydronaphthalen-1-yl)-7,8-dihydro-5H-pyrano[4,3-d]pyrimidin-4-yl)piperazin-2-yl)acetonitrile] | 4200 | > 100 | No
13 | C=CC(=O)N1CCN(c2nc(OC[C@@H]3C[C@H](F)CN3C)nc3c2CO[C@@H](c2cccc4ccccc24)C3)C[C@@H]1CC#N [Compound 10, 2-((S)-1-acryloyl-4-((R)-2-(((2S,4S)-4-fluoro-1-methylpyrrolidin-2-yl)methoxy)-7-(naphthalen-1-yl)-7,8-dihydro-5H-pyrano[4,3-d]pyrimidin-4-yl)piperazin-2-yl)acetonitrile] | 13900 | > 100 | 
